{"source": "patent US7199120B2", "about": "“Pyrazolo-pyridine derivatives as antiherpes agents” (SmithKline Beecham Corporation, priority 2001, dated 2007)", "test_system": "HSV-1", "assay": "HSV-1 replication in infected Vero 76 cells, viral DNA hybridization capture assay", "assay_type": "cell-based, herpes simplex virus 1", "settings": "Human alphaherpesvirus 1; HSV-1 (MOI=0.001) in Vero 76 cells, 40–48 hours incubation, chemiluminescent detection of HSV DNA", "description": "Vero 76 cells were maintained in MEM with Earle's salts, L-glutamine, 8% FBS (Hyclone, A-1111-L) and 100 units/mL Penicillin-100 μg/mL Streptomycin. For assay conditions, FBS was reduced to 2%. Cells are seeded into 96-well tissue culture plates at a density of 5×10^4 cells/well after being incubated for 45 min at 37° C. in the presence of HSV-1 or HSV-2 (MOI=0.001). Test compounds are added to the wells and the plates are incubated at 37° C. for 40–48 hours. Cell lysates are prepared as follows: media was removed and replaced with 150 μL/well 0.2 N NaOH with 1% Igepal CA 630 or NP-40. Plates were incubated up to 14 days at room temperature in a humidified chamber to prevent evaporation.\nFor the detection probe, a gel-purified, digoxigenin-labeled, 710-bp PCR fragment of the HSV UL-15 sequence was utilized. PCR conditions included 0.5 μM primers, 180 μM dTTP, 20 μM dUTP-digoxigenin (Boehringer Mannheim 1558706), 200 μM each of dATP, dCTP, and dGTP, 1×PCR Buffer II (Perkin Elmer), 2.5 mM MgCl2, 0.025 units/μL of AmpliTaq Gold polymerase (Perkin Elmer), and 5 ng of gel-purified HSV DNA per 100 μL Extension conditions were 10 min at 95° C., followed by 30 cycles of 95° C. for 1 min, 55° C. for 30 sec, and 72° C. for 2 min. The amplification was completed with a 10-min incubation at 72° C. Primers were selected to amplify a 728 bp probe spanning a section of the HSV1 UL15 open reading frame (nucleotides 249–977). Single-stranded transcripts were purified with Promega M13 Wizard kits. The final product was mixed 1:1 with a mixture of 6 M GuSCN, 100 mM EDTA and 200 μg/mL herring sperm DNA and stored at 4° C.\nThe capture DNA plasmid (HSV UL13 region in pUC) was linearized by cutting with Xba I, denatured for 15 min at 95° C. and diluted immediately into Reacti-Bind DNA Coating Solution (Pierce, 17250, diluted 1:1 with TE buffer, pH 8) at 1 ng/μL 75 μL/well were added to Corning (#3922 or 9690) white 96-well plates and incubated at room temperature for at least 4 hrs before washing twice with 300 μL/well 0.2×SSC/0.05% Tween-20 (SSC/T buffer). The plates were then incubated overnight at room temperature with 150 μL/well 0.2 N NaOH, 1% IGEPAL and 10 μg/mL herring sperm DNA.\nTwenty-seven (27) μL of cell lysate was combined with 45 μL of hybridization solution (final concentration: 3M GuSCN, 50 mM EDTA, 100 μg/ml salmon sperm DNA, 5× Denhardt's solution, 0.25×APE, and 5 ng of the digoxigenin-labeled detection probe). APE is 1.5 M NH4-acetate, 0.15 M ammonium phosphate monobasic, and 5 mM EDTA adjusted to pH 6.0. Mineral oil (50 μL) was added to prevent evaporation. The hybridization plates were incubated at 95° C. for 10 minutes to denature the DNA, then incubated at 42° C. overnight. The wells were washed 6× with 300 μl/well SSC/T buffer then incubated with 75 μL/well anti-digoxigenin-HRP-conjugated antibody (Boehringer Mannheim 1207733, 1:5000 in TE) for 30 min at room temperature. The wells were washed 6× with […] with PBS/0.05% Tween-20 before 75 μL/well SuperSignal LBA substrate (Pierce) was added. The plates were incubated at room temperature for 30 minutes and chemiluminescence was measured in a Wallac Victor reader.", "data": [{"molecule": "c1cc(NC2CCCC2)n2nc(-c3ccnc(NC4CCCC4)n3)c(-c3ccnc(NC4CCCC4)n3)c2c1", "note": "[Example 6, N-Cyclopentyl-2,3-bis[2-(cyclopentylamino)-4-pyrimidinyl]pyrazolo[1,5-a]pyridin-7-amine]", "values": [{"measurement": "IC50", "result": 400, "unit": "nM"}]}, {"molecule": "c1cc(N2CCOCC2)n2nc(-c3ccnc(N4CCOCC4)n3)c(-c3ccnc(N4CCOCC4)n3)c2c1", "note": "[Example 10]", "values": [{"measurement": "IC50", "result": 33000, "unit": "nM"}]}, {"molecule": "c1coc(-c2nn3c(NC4CCCC4)cccc3c2-c2ccnc(NC3CCCC3)c2)c1", "note": "[Example 21, N-Cyclopentyl-3-[2-(cyclopentylamino)-4-pyridinyl]-2-(2-furyl)pyrazolo[1,5-a]pyridin-7-amine]", "values": [{"measurement": "IC50", "result": 500, "unit": "nM"}]}, {"molecule": "CC(C)Nc1nccc(-c2c(-c3ccnc(NC4CCCC4)c3)nn3c(NC4CCCC4)cccc23)n1", "note": "[Example 18, N-Cyclopentyl-2-[2-(cyclopentylamino)-4-pyridinyl]-3-[2-(isopropylamino)-4-pyrimidinyl]pyrazolo[1,5-a]pyridin-7-amine]", "values": [{"measurement": "IC50", "result": 1000, "unit": "nM"}]}, {"molecule": "CC(C)Nc1cc(-c2nn3c(NC(C)C)cccc3c2-c2ccnc(NC3CCCC3)n2)ccn1", "note": "[Example 19, 3-[2-(Cyclopentylamino)-4-pyrimidinyl]-N-isopropyl-2-[2-(isopropylamino)-4-pyridinyl]pyrazolo[1,5-a]pyridin-7-amine]", "values": [{"measurement": "IC50", "result": 700, "unit": "nM"}]}, {"molecule": "CCCCNc1nccc(-c2nn3c(NCCCC)cccc3c2-c2ccnc(NCCCC)n2)n1", "note": "[Example 8, N-Butyl-2,3-bis[2-(butylamino)pyrimidin-4-yl]pyrazolo[1,5-a]pyridin-7-amine]", "values": [{"measurement": "IC50", "result": 800, "unit": "nM"}]}, {"molecule": "c1coc(-c2nn3c(NC4CCCC4)cccc3c2-c2ccnc(NC3CCCC3)n2)c1", "note": "[Example 25, N-Cyclopentyl-3-[2-(cyclopentylamino)-4-pyrimidinyl]-2-(2-furyl)pyrazolo[1,5-a]pyridin-7-amine]", "values": [{"measurement": "IC50", "result": 500, "unit": "nM"}]}, {"molecule": "CC(C)Nc1nccc(-c2nn3c(NC(C)C)cccc3c2-c2ccnc(NC(C)C)n2)n1", "note": "[Example 13, N-Isopropyl-2,3-bis[2-(isopropylamino)pyrimidin-4-yl]pyrazolo[1,5-a]pyridin-7-amine]", "values": [{"measurement": "IC50", "result": 3300, "unit": "nM"}]}, {"molecule": "CC(C)CNc1nccc(-c2nn3c(NCC(C)C)cccc3c2-c2ccnc(NCC(C)C)n2)n1", "note": "[Example 11, N-Isobutyl-2,3-bis[2-(isobutylamino)pyrimidin-4-yl]pyrazolo[1,5-a]pyridin-7-amine]", "values": [{"measurement": "IC50", "result": 1600, "unit": "nM"}]}, {"molecule": "c1cc(NC2CC2)n2nc(-c3ccnc(NC4CC4)n3)c(-c3ccnc(NC4CC4)n3)c2c1", "note": "[Example 9, N-Cyclopropyl-2,3-bis[2-(cyclopropylamino)pyrimidin-4-yl]pyrazolo[1,5-a]pyridin-7-amine]", "values": [{"measurement": "IC50", "result": 23000, "unit": "nM"}]}, {"molecule": "Cc1ccoc1-c1nn2c(NC3CCCC3)cccc2c1-c1ccnc(NC2CCCC2)n1", "note": "[Example 22, N-Cyclopentyl-3-[2-(cyclopentylamino)-4-pyrimidinyl]-2-(3-methyl-2-furyl)pyrazolo[1,5-a]pyridin-7-amine]", "values": [{"measurement": "IC50", "result": 200, "unit": "nM"}]}, {"molecule": "Cc1ccoc1-c1nn2c(NC3CCCC3)cccc2c1-c1ccnc(NC2CC2)n1", "note": "[Example 23, N-Cyclopentyl-3-[2-(cyclopropylamino)-4-pyrimidinyl]-2-(3-methyl-2-furyl)pyrazolo[1,5-a]pyridin-7-amine]", "values": [{"measurement": "IC50", "result": 800, "unit": "nM"}]}, {"molecule": "c1coc(-c2nn3c(NC4CC4)cccc3c2-c2ccnc(NC3CCCC3)n2)c1", "note": "[Example 26, 3-[2-(Cyclopentylamino)-4-pyrimidinyl]-N-cyclopropyl-2-(2-furyl)pyrazolo[1,5-a]pyridin-7-amine]", "values": [{"measurement": "IC50", "result": 1400, "unit": "nM"}]}, {"molecule": "c1cc(NC2CCCC2)n2nc(-c3ccncc3)c(-c3ccnc(NC4CCCC4)n3)c2c1", "note": "[Example 1, N-Cyclopentyl-3-[2-(cyclopentylamino)-4-pyrimidinyl]-2-(4-pyridinyl)pyrazolo[1,5-a]pyridin-7-amine]", "values": [{"measurement": "IC50", "result": 1500, "unit": "nM"}]}, {"molecule": "c1ccc(CNc2nccc(-c3nn4c(NCc5ccccc5)cccc4c3-c3ccnc(NCc4ccccc4)n3)n2)cc1", "note": "[Example 12, N-Benzyl-2,3-bis[2-(benzylamino)pyrimidin-4-yl]pyrazolo[1,5-a]pyridin-7-amine]", "values": [{"measurement": "IC50", "result": 36000, "unit": "nM"}]}, {"molecule": "c1ccn2nc(-c3ccnc(NC4CCCC4)n3)c(-c3ccnc(NC4CCCC4)n3)c2c1", "note": "[Example 4, N-Cyclopentyl-N-(4-{2-[2-(cyclopentylamino)-4-pyrimidinyl]pyrazolo[1,5-a]pyridin-3-yl]-2-pyrimidinyl)amine]", "values": [{"measurement": "IC50", "result": 3100, "unit": "nM"}]}, {"molecule": "Cc1nc(-c2nn3c(NC4CCCC4)cccc3c2-c2ccnc(NC3CCCC3)c2)cs1", "note": "[Example 28, N-Cyclopentyl-3-[2-(cyclopentylamino)-4-pyridinyl]-2-(2-methyl-1,3-thiazol-4-yl)pyrazolo[1,5-a]pyridin-7-amine]", "values": [{"measurement": "IC50", "result": 1700, "unit": "nM"}]}, {"molecule": "CC(C)Nc1cc(-c2nn3c(NC(C)C)cccc3c2-c2ccnc(NC3CC3)n2)ccn1", "note": "[Example 17, 3-[2-(Cyclopropylamino)-4-pyrimidinyl]-N-isopropyl-2-[2-(isopropylamino)-4-pyridinyl]pyrazolo[1,5-a]pyridin-7-amine]", "values": [{"measurement": "IC50", "result": 2900, "unit": "nM"}]}, {"molecule": "Cc1ccoc1-c1nn2c(NC3CC3)cccc2c1-c1ccnc(NC2CC2)n1", "note": "[Example 24, N-Cyclopropyl-3-[2-(cyclopropylamino)-4-pyrimidinyl]-2-(3-methyl-2-furyl)pyrazolo[1,5-a]pyridin-7-amine]", "values": [{"measurement": "IC50", "result": 5000, "unit": "nM"}]}, {"molecule": "CC(C)Nc1cc(-c2nn3c(NC4CCCC4)cccc3c2-c2ccnc(NC3CCCC3)n2)ccn1", "note": "[Example 20, N-Cyclopentyl-3-[2-(cyclopentylamino)-4-pyrimidinyl]-2-[2-(isopropylamino)-4-pyridinyl]pyrazolo[1,5-a]pyridin-7-amine]", "values": [{"measurement": "IC50", "result": 500, "unit": "nM"}]}, {"molecule": "Brc1ccc(-c2nn3c(NC4CCCC4)cccc3c2-c2ccnc(NC3CCCC3)n2)o1", "note": "[Example 27, 2-(5-Bromo-2-furyl)-N-cyclopentyl-3-[2-(cyclopentylamino)-4-pyrimidinyl]pyrazolo[1,5-a]pyridin-7-amine]", "values": [{"measurement": "IC50", "result": 500, "unit": "nM"}]}, {"molecule": "c1cncc(-c2nn3c(NC4CCCC4)cccc3c2-c2ccnc(NC3CCCC3)n2)c1", "note": "[Example 3, N-cyclopentyl-3-[2-(cyclopentylamino)-4-pyrimidinyl]-2-(3-pyridinyl)pyrazolo[1,5-a]pyridin-7-amine]", "values": [{"measurement": "IC50", "result": 600, "unit": "nM"}]}]}
